Test results as given in ChEMBL document CHEMBL1128241, “Molecular similarity matrices and quantitative structure-activity relationships: a case study with methodological implications” (J Med Chem, 1995).

Experiment: Partition coefficient (logP)
Assay type: physicochemical
Conditions: octanol/water

Row | Compound | logP
1 | ClC(Cl)C(Cl)(Cl)Cl [PENTACHLOROETHANE] | 5.72
2 | ClC(Cl)=C(Cl)Cl [TETRACHLOROETHYLENE] | 1.27
3 | ClC=C(Cl)Cl [TRICHLOROETHYLENE] | 0.96

Same assay, conditions: octanol/water; read-out: logP

Row | Compound | logP
4 | CCC(C)(C)Br | 2.99
5 | ClCC(Cl)(Cl)Cl | 3.05
6 | CCCCCBr | 3.25
7 | CCCCCCCCBr | 4.87
8 | C=C(Cl)CCl | 1.75
9 | CCCCCCCl | 3.65
10 | CCC(C)Br (stereo not drawn) | 2.71
11 | CCC(C)CBr (stereo not drawn) | 3.12
12 | ClCCCBr | 1.88
13 | Cl/C=C/Cl | 0.65
14 | C=C(C)CCl | 1.89
15 | CC(C)=CBr | 1.8
16 | ClCCCCl | 1.74
17 | CCCCCCCCCl | 4.85
18 | CC(C)CCBr | 3.12
19 | ClCCBr | 1.62
20 | ClCC=C(Cl)Cl | 1.5
21 | CC(C)=CCl | 1.89
22 | ClC(Cl)(Cl)Br | 3.1
23 | C=C(CCl)CCl | 2.01
24 | CC(Br)CCl (stereo not drawn) | 2.16
25 | CC(C)CCl | 2.44
26 | FC(Cl)(Br)Br | 2.8
27 | C/C(Cl)=C/Cl | 1.79
28 | CCC(C)Cl (stereo not drawn) | 2.57

Row | Compound | logP
29 | CC(C)CBr | 2.58
30 | ClCBr | 1.4
31 | CC(Cl)C(C)Cl (stereo not drawn) | 2.56
32 | CC(C)(C)Cl | 2.44
33 | CC(C)(C)Br | 2.45
34 | CCCCCCl | 3.11
35 | CC(C)(Cl)Cl | 2.34
36 | ClCCCCBr | 2.42
37 | CC(Cl)CCCl (stereo not drawn) | 2.28
38 | CC(Cl)CCl (stereo not drawn) | 2.02
39 | CC(Cl)Cl | 1.8
40 | ClC(Cl)C(Cl)Cl [1,1,2,2-TETRACHLOROETHANE] | 2.66
41 | C=C(Cl)Cl [1,1-DICHLOROETHENE] | 1.21
42 | ClCC(Cl)CCl [1,2,3-TRICHLOROPROPANE] | 2.01
43 | Cl/C=C/CCl [1,3-DICHLOROPROPENE] | 1.19
44 | CCCCBr [1-BROMOBUTANE] | 2.71
45 | ClC(Cl)Br [BROMODICHLOROMETHANE] | 2.67
46 | CCBr [BROMOETHANE] | 1.63
47 | BrC(Br)Br [BROMOFORM] | 2.38
48 | ClC(Cl)(Cl)Cl [CARBON TETRACHLORIDE] | 2.83
49 | ClC(Br)Br [DIBROMOCHLOROMETHANE] | 2.48
50 | ClC(Cl)(Cl)C(Cl)(Cl)Cl [HEXACHLOROETHANE] | 4.62
51 | ClCCl [METHYLENE CHLORIDE] | 1.26
52 | CC(Cl)(Cl)Cl [TRICHLOROETHANE] | 2.5
53 | FC(Cl)(Cl)Cl [TRICHLOROMONOFLUOROMETHANE] | 2.29
